Source: the NIST ThermoML archive (doi:10.1016/j.tca.2006.02.034)
± gives the expanded uncertainty stated by the source.

Conditions: Crystal; Adiabatic calorimetry

CCCC[n+]1ccn(C)c1.O=S(=O)([N-]S(=O)(=O)C(F)(F)F)C(F)(F)F
Triple point temperature: 270.22 ± 0.05 K
